From PMC10787893, “Expression and characterization of the new antimicrobial peptide AP138L-arg26 anti Staphylococcus aureus” (Applied Microbiology and Biotechnology, 2024)
≈ marks a conversion by molar mass, not a printed value. Counter-ions that a name gives are not always drawn. Like-named read-outs stand apart in the source and are kept apart here.

Columns and labels:
[1] = test system: S. aureus CVCC 546; details: for FIC: FIC = MICc/MICa; for MICa: MIC of peptide/antibiotic alone, three parallel experiments
Procedure: The synergistic effects of AP138L-arg26 with different antibiotics were evaluated using a checkerboard assay. The synergistic effect was calculated using the FICI as follows: FICI = FIC of AP138L-arg26 + FIC of antibiotic; FIC = MICc/MICa, where MICc is the MIC of the peptide and antibiotic in combination, and MICa is the MIC of the peptide/antibiotic alone (Blier et al. [2010]). Three parallel experiments were performed for each group. The efficacy of combination therapy was defined as FICI ≤ 0.5, 0.5 < FICI ≤ 1, 1 < FICI ≤ 4, and FICI > 4 indicating synergy, addition, no difference, and antagonism, respectively.

[2] = test system: S. aureus CVCC 546; assay: Growth curve of S. aureus; assay type: cell-based, Staphylococcus aureus; details: AP138L-arg26 8 µg/mL (2 × MIC), ceftiofur sodium 0.25 µg/mL (1/8 MIC), alone or combined; 1 × 10^5 CFU/mL
Procedure: Samples were taken during the logarithmic growth of S. aureus and diluted to 1 × 10^5 CFU/mL (Delpech et al. [2019]). Different concentrations of AP138L-arg26, ceftiofur sodium, or a combination of them with an equal volume of bacteria were added to a 96-well microplate. The growth curves were recorded using a fully automatic growth curve recording instrument.

[3] = test system: Staphylococcus aureus ATCC 25923; assay: MIC and MBC, broth microdilution; assay type: cell-based; details: Staphylococcus aureus, ATCC25923
Procedure: (§1) To determine the MIC values of AP138L-arg26, we used the broth microdilution technique as previously described (Andrews. [2001]; Wiegand et al. [2008]). In brief, AP138L-arg26 peptide were diluted from 1280 to 2.5 µg/mL and added to a 96-cells plate with 10 µL per well. The bacteria in the logarithmic stage were diluted to 10^5 CFU/mL with 90 µL per well. […] The MBC method was also based on the CLSI 2021 guidelines.

[4] = test system: Staphylococcus aureus ATCC 43300; assay: MIC and MBC, broth microdilution; assay type: cell-based; details: Staphylococcus aureus, ATCC43300
Procedure: as §1

[5] = test system: Staphylococcus aureus CAAS-FRI-2023-01; assay: MIC and MBC, broth microdilution; assay type: cell-based; details: Staphylococcus aureus
Procedure: as §1

[6] = test system: Staphylococcus aureus CAAS-FRI-2023-02; assay: MIC and MBC, broth microdilution; assay type: cell-based; details: Staphylococcus aureus
Procedure: as §1

[7] = test system: Staphylococcus aureus CVCC 546; assay: MIC and MBC, broth microdilution; assay type: cell-based; details: Staphylococcus aureus, CVCC546
Procedure: as §1

[8] = test system: Staphylococcus aureus E48; assay: MIC and MBC, broth microdilution; assay type: cell-based; details: Staphylococcus aureus, E48
Procedure: as §1

[9] = test system: Staphylococcus epidermidis ATCC 12228; assay: MIC and MBC, broth microdilution; assay type: cell-based; details: Staphylococcus epidermidis, ATCC12228
Procedure: as §1

[10] = test system: Staphylococcus epidermidis ATCC 35984; assay: MIC and MBC, broth microdilution; assay type: cell-based; details: Staphylococcus epidermidis, ATCC35984
Procedure: as §1

[11] = test system: Streptococcus agalactiae ATCC 13813; assay: MIC and MBC, broth microdilution; assay type: cell-based; details: Streptococcus agalactiae, ATCC13813
Procedure: as §1

[12] = test system: Streptococcus agalactiae CAU-FRI-2022-01; assay: MIC and MBC, broth microdilution; assay type: cell-based; details: Streptococcus agalactiae, CAUFRI202201
Procedure: as §1

[13] = test system: Streptococcus agalactiae CAU-FRI-2022-02; assay: MIC and MBC, broth microdilution; assay type: cell-based; details: Streptococcus agalactiae, CAUFRI202202
Procedure: as §1

[14] = test system: Streptococcus dysgalactiae CVCC 3938; assay: MIC and MBC, broth microdilution; assay type: cell-based; details: Streptococcus dysgalactiae, CVCC3938
Procedure: as §1

[15] = test system: S. aureus ATCC 43300; assay: Post-antibiotic effect (PAE) assay; assay type: cell-based, Staphylococcus aureus; details: PAE = T − C
From the text: The method of PAE of AP138L-arg26 against MRSA ATCC 43300 or S. aureus CVCC 546 was described previously (Wang et al. [2018]). The formula is PAE = T − C (T is the time required for the number of colonies in the sample treatment group to increase by tenfold, and C is the time required for the untreated group).

[16] = 99.99% of bacteria killed, plated on MHA, read-out: MBC
[17] = broth microdilution, 10^5 CFU/mL, 37 °C, 18 h, read-out: MIC

For `CC1(C)S[C@@H]2[C@H](NC(=O)[C@H](N)c3ccccc3)C(=O)N2[C@H]1C(=O)O` [Ampicillin], the FIC ([1]; combination AP138L-arg26-ampicillin) was 0.0625 and the MICc ([1]; in combination AP138L-arg26-ampicillin) was 0.0078 µg/mL.
With `CO/N=C(\C(=O)N[C@@H]1C(=O)N2C(C(=O)[O-])=C(CSC(=O)c3ccco3)CS[C@H]12)c1csc(N)n1.[Na+]` [Ceftiofur sodium, ceftiofur sodium] the “effect on the growth of S. aureus CVCC 546” value [2] was “little effect on the growth”, the FIC ([1]; combination AP138L-arg26-ceftiofur sodium) was 0.25 and the MICc ([1]; in combination AP138L-arg26-ceftiofur sodium) was 0.25 µg/mL.
`[H]/N=C(/N)N[C@H]1[C@H](O)[C@@H](O)[C@H](O[C@@H]2O[C@@H](C)[C@](O)(C=O)[C@H]2O[C@@H]2O[C@@H](CO)[C@H](O)[C@@H](O)[C@@H]2NC)[C@@H](N/C(N)=N\[H])[C@@H]1O` [Streptomycin sulfate] gave an FIC ([1]; combination AP138L-arg26-Streptomycin sulfate) of 0.5, an MICa [1] of 1 µg/mL and an MICc ([1]; in combination AP138L-arg26-Streptomycin sulfate) of 0.5 µg/mL.
`CN[C@H](CC(C)C)C(=O)N[C@H]1C(=O)N[C@@H](CC(N)=O)C(=O)N[C@H]2C(=O)N[C@H]3C(=O)N[C@H](C(=O)N[C@H](C(=O)O)c4cc(O)cc(O)c4-c4cc3ccc4O)[C@H](O)c3ccc(c(Cl)c3)Oc3cc2cc(c3O[C@@H]2O[C@H](CO)[C@@H](O)[C@H](O)[C@H]2O[C@H]2C[C@](C)(N)[C@H](O)[C@H](C)O2)Oc2ccc(cc2Cl)[C@H]1O` [vancomycin, reference compound] gave an MBC [3, 16] of 2 µg/mL (≈ 1.38 µM), an MIC [3, 17] of 1 µg/mL (≈ 0.69 µM) and an MBC [4, 16] of 1 µg/mL (≈ 0.69 µM). For the same molecule, the MIC [4, 17] was 1 µg/mL (≈ 0.69 µM), the MBC [5, 16] was 2 µg/mL (≈ 1.38 µM) and the MIC [5, 17] was 1 µg/mL (≈ 0.69 µM). For the same molecule, the MBC [6, 16] was 8 µg/mL (≈ 5.52 µM), the MIC [6, 17] was 2 µg/mL (≈ 1.38 µM) and the MBC [7, 16] was 1 µg/mL (≈ 0.69 µM). The MIC [7, 17] was 1 µg/mL (≈ 0.69 µM), the MBC [8, 16] was 8 µg/mL (≈ 5.52 µM) and the MIC [8, 17] was 1 µg/mL (≈ 0.69 µM). It also gave an MBC [9, 16] of 4 µg/mL (≈ 2.76 µM), an MIC [9, 17] of 2 µg/mL (≈ 1.38 µM) and an MBC [10, 16] of 4 µg/mL (≈ 2.76 µM). The MIC [10, 17] was 2 µg/mL (≈ 1.38 µM), the MBC [11, 16] was 4 µg/mL (≈ 2.76 µM) and the MIC [11, 17] was 2 µg/mL (≈ 1.38 µM). The MBC [12, 16] was 8 µg/mL (≈ 5.52 µM), the MIC [12, 17] was 2 µg/mL (≈ 1.38 µM) and the MBC [13, 16] was 4 µg/mL (≈ 2.76 µM). It also gave an MIC [13, 17] of 2 µg/mL (≈ 1.38 µM), an MBC [14, 16] of 2 µg/mL (≈ 1.38 µM) and an MIC [14, 17] of 2 µg/mL (≈ 1.38 µM). For the same molecule, the PAE ([15]; 1 × MIC) was 0.27 h, the PAE ([15]; 2 × MIC) was 0.45 h and the PAE ([15]; 4 × MIC) was 1.18 h. The MICa [1] was 1 µg/mL.
